Measurements as given in ChEMBL document CHEMBL2010733, “Amphilectane diterpenes from Salvia sclarea: biosynthetic considerations” (J Nat Prod, 2012).
Activity calls are given as the source filed them. The rule behind the calls is not given here.

Tested on: Radical scavenging activity
Test: Antioxidant activity assessed as DPPH radical scavenging activity
Format: functional

Question: Which Activity does the source give for `CC(C)=C[C@H]1C=C(C)[C@H]2CC[C@H](C)[C@@H]3CC=C(C)[C@@H]1[C@@H]32` (relative stereo) here?
Answer: inactive

Question: Which Activity does the source give for `CC(C)=C[C@H]1C=C(C)[C@@H]2CC[C@H](C)[C@@]23CCC(C)=C[C@@H]13` (relative stereo) here?
Answer: inactive
